Experimental data taken from publication PMC8746645, “Isolation of Anti-Diabetic Active Compounds from Benincasae Exocarpium and Development of Simultaneous Analysis by HPLC-PDA” (Molecules, 2021).
Read-outs that look alike come from different tables or passages of the source.

Experiments:
[1] = molecular target: α-glucosidase from Saccharomyces cerevisiae (Saccharomyces cerevisiae, UniProt P53341); test: α-glucosidase inhibitory activity assay (p-NPG substrate); assay type: biochemical; conditions: for IC50: compounds, pH 6.8, 37 °C, 405 nm, mean ± SD (n = 3)
α-glucosidase from Saccharomyces cerevisiae, sequence (P53341 whole entry): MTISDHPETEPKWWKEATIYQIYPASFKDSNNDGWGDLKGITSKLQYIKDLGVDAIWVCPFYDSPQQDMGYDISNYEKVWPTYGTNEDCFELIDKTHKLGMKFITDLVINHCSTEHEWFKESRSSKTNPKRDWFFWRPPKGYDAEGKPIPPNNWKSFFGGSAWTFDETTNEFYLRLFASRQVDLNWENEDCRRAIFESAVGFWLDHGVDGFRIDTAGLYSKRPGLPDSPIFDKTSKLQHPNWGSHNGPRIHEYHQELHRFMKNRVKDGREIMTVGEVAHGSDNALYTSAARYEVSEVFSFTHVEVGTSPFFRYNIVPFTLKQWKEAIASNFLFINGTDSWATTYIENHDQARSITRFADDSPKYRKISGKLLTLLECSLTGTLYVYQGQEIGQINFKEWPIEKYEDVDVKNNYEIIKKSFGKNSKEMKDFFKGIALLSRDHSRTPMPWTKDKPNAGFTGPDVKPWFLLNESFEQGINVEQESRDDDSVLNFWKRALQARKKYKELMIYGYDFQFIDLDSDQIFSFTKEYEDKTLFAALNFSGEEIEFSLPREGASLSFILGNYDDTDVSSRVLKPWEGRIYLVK
Protocol: Among the anti-diabetes activity assays, the Infinite® F200 PRO spectrophotometer (TECAN, Männedorf, Zürich, Switzerland) was used for the AGE formation inhibitory activity assay in the BSA-glucose and BSA-MGO systems. In addition, the α-glucosidase inhibitory activity assay was performed using Biotek EPOCH2 (Biotek, Winooski, VT, USA).
α-Glucosidase inhibitory activity was measured spectrophotometrically according to the previously described method. All samples were dissolved in 10% DMSO. This assay consisted of a 50 μL sample solution, 50 μL of 50 mM potassium phosphate buffer (pH 6.8), and 50 μL of 0.5 U/mL α-glucosidase was preincubated for 10 min at 37 °C. After incubation, 50 μL of p-NPG was added to the mixed assay mixtures. […] The inhibitory activity was calculated using the equation applied in the BSA-glucose assay, but Ac and As are the absorbance values of the control and sample, respectively.

[2] = system: advanced glycation end-products (AGEs) formation in bovine serum albumin (BSA)-glucose system; assay type: biochemical
Protocol: The AGE formation inhibitory assay of BSA-glucose was conducted using a spectrophotometric method developed in a previous study. All test samples were dissolved in 10% DMSO at five different concentrations (1000–10,000 μg/mL for the extract and fractions and 100–10,000 μM for the compounds). The assay mixtures contained the following constituents: 135 µL of 50 mM phosphate buffer (pH 7.4) containing 0.02% sodium azide and BSA (10 mg/mL), 135 µL of 0.4 M D-fructose and D-glucose, and 30 µL of sample. The mixture was incubated at 60 °C for 2 days. After incubation, the fluorescence was measured at an excitation wavelength of 350 nm and emission wavelength of 450 nm in a 96-black well plate. AMG was used as a positive control. The inhibitory activity on AGE formation of BSA-glucose was calculated using the following formula: {(Ac − As)/Ac} × 100, where Ac is the fluorescence of the control and As is the fluorescence of the sample. Controls contained the same reaction mixture, except that phosphate buffer was added instead of the sample. The half-maximal inhibitory concentration (IC50) values of triplicate measurements of the samples and AMG were calculated and expressed as the mean ± SD.

[3] = system: advanced glycation end-products (AGEs) formation in BSA-methylglyoxal (MGO) system; test: AGE formation inhibitory assay, BSA-MGO system; assay type: biochemical, bovine
Protocol: The AGE formation inhibitory assay of BSA-MGO was conducted using spectrophotometry according to a previously described method with modification. All samples were dissolved in 10% DMSO. The assay mixtures contained 50 µL of 50 mM phosphate buffer (pH 7.4) containing 0.02% sodium azide and BSA (10 mg/mL), 50 µL of 7 mM MGO, and 50 µL of sample. After incubation at 60 °C for 2 days, fluorescence was measured on excitation and emission wavelengths of 340 and 420 nm, respectively, in a 96-black well plate. AMG was used as a positive control. The inhibitory activity on AGE formation by BSA-MGO was calculated using the same equation applied in the BSA-glucose assay.

[4] = design: method as in PMID 29885110; conditions: cited from earlier work
[5] = compounds, 60 °C, 2 days, fluorescence ex 340/em 420 nm, mean ± SD (n = 3)
[6] = compounds, 60 °C, 2 days, fluorescence ex 350/em 450 nm, mean ± SD (n = 3), read-out: IC50 BSA-Glucose

SMILES	α-glucosidase inhibitory activity (in words) [1]	inhibition of AGE formation in BSA-MGO system (in words) [3]	IC50 [3, 5] [µM]	IC50 [2, 6] [µM]	also measured
O=Cc1ccc(CO)o1 [Compound 4, 5-hydroxymethylfurfural]	no, or slight, inhibitory activity	no or slight inhibitory activity	381 ± 14.7	–	inhibition of AGE formation in BSA-glucose system (in words) [2]: no activity
O=c1cc(-c2ccc(O)cc2)oc2c([C@@H]3O[C@H](CO)[C@@H](O)[C@H](O)[C@H]3O)c(O)cc(O)c12 [Compound 6, vitexin]	–	–	14.9 ± 3.66	19.5 ± 1.47	–
O=C(O)c1ccc(O)c(O)c1 [Compound 2, protocatechuic acid]	–	–	53.2 ± 23.2	79.8 ± 1.91	–
O=C(O)c1cc(O)c(O)c(O)c1 [Compound 8, gallic acid]	–	no or slight inhibitory activity	> 500	192 ± 2.15	–
O=c1cc(-c2ccc(O)c(O)c2)oc2c([C@@H]3O[C@H](CO)[C@@H](O)[C@H](O)[C@H]3O)c(O)cc(O)c12 [Compound 7, orientin]	–	–	13.3 ± 0.65	9.61 ± 0.27	–
O=c1cc(-c2ccc(O)cc2)oc2c([C@@H]3O[C@H](CO)[C@@H](O[C@@H]4O[C@H](CO)[C@@H](O)[C@H](O)[C@H]4O)[C@H](O)[C@H]3O)c(O)cc(O)c12 [Compound 11, vitexin-4″-O-glucoside]	–	–	11.6 ± 1.1	14.5 ± 0.39	IC50 [1]: 65.4 ± 4.22 µM
O=C(O)c1ccc(O)cc1 [Compound 1, p-hydroxybenzoic acid]	no, or slight, inhibitory activity	no or slight inhibitory activity	–	–	inhibition of AGE formation in BSA-glucose system (in words) [2]: no activity
COc1ccc(C=O)cc1O [Compound 3, isovanillin]	no, or slight, inhibitory activity	no or slight inhibitory activity	> 500	–	inhibition of AGE formation in BSA-glucose system (in words) [2]: no activity
O=C(O)/C=C/c1ccc(O)c(O)c1 [Compound 9, caffeic acid]	no, or slight, inhibitory activity	–	43 ± 9.41	54.51 ± 0.3	–
Cl.N=C(N)NN [AMG, aminoguanidine hydrochloride, reference compound]	–	–	–	–	IC50 BSA-Glucose ([2]; extract and fractions, 60 °C, 2 days, fluorescence ex 350/em 450 nm, mean ± SD (n = 3)): 217.93 ± 1.54 µg/mL; IC50 BSA-MGO ([3]; extract and fractions, 60 °C, 2 days, fluorescence ex 340/em 420 nm, mean ± SD (n = 3)): 167.32 ± 8.40 µg/mL
N=C(N)NN [Aminoguanidine, aminoguanidine]	–	–	–	–	toxicity during clinical evaluation [4]: toxic
C[C@@H]1O[C@@H](O[C@@H]2[C@@H](O)[C@H](O)[C@@H](CO)O[C@H]2c2c(O)cc(O)c3c(=O)cc(-c4ccc(O)cc4)oc23)[C@H](O)[C@H](O)[C@H]1O [Compound 10, vitexin-2″-O-rhamnoside]	–	–	–	–	IC50 [1]: 12.8 ± 1.18 µM; IC50 [2]: 29.6 ± 1.02 µM; IC50 [3]: 12.5 ± 0.81 µM
O=c1cc(-c2ccc(O)cc2)oc2cc(O)c([C@@H]3O[C@H](CO)[C@@H](O)[C@H](O)[C@H]3O)c(O)c12 [Compound 5, isovitexin]	–	–	7.49 ± 0.24	20.2 ± 0.1	–
